From patent US20190292155A1, “THERAPEUTIC INHIBITORY COMPOUNDS” (LifeSci Pharmaceuticals, Inc., priority 2016, published 2019) come the findings set out here.

pIC50: −log10 of the molar value. Like-named read-outs stand apart in the source and are kept apart here. Some results are limits rather than exact numbers.

The test has as its target T1, human complement factor D (Homo sapiens, UniProt P00746).
T1 construct: purchased R&D Systems 1824-SE
Briefly: In vitro enzyme inhibition of human complement factor D (Z-Lys-SBzl/DTNB, A405). The format is biochemical. In short, it runs like this: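 Buffer 50 mM Tris/HCl pH 7.5, 1 M NaCl, 0.5% final DMSO; compounds pre-incubated with enzyme 5 min at room temperature, then Z-Lys-SBzl with DTNB added (each diluted to 200 μM before addition).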

Where [1] appears, read: biochemical assay, substrate Z-Lys-SBzl, read-out: CFD IC50.

T1 sequence (P00746 26-253): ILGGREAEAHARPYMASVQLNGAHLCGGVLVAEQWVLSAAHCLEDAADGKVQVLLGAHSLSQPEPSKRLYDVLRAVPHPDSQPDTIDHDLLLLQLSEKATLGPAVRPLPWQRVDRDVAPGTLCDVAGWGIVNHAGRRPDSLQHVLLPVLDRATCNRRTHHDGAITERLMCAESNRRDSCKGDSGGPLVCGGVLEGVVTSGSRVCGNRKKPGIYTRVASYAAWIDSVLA

`CC(CC(=O)O)N(CC(=O)NCc1cccc(Cl)c1F)C(=O)Cn1nc(C(N)=O)c2ccccc21` (stereo not shown) [Example 74, 3-(2-(3-carbamoyl-1H-indazol-1-yl)-N-(2-((3-chloro-2-fluorobenzyl)amino)-2-oxoethyl)acetamido)butanoic acid]: the pIC50 under setting [1] was 5.00 to 6.00.
Consider `CC(=O)c1nc(NC(=O)N(CC(=O)NCc2cccc(Cl)c2F)C2CC2)c2ccccn12` [Example 141, 2-(3-(3-acetylimidazo[1,5-a]pyridin-1-yl)-1-cyclopropylureido)-N-(3-chloro-2-fluorobenzyl)acetamide], for which the pIC50 under setting [1] was 6.00 to 7.00.
As for `NC(=O)c1nn(CC(=O)N(CC(=O)NCc2cccc(Cl)c2F)C2CC2)c2cc(F)ccc12` [Example 84, 1-(2-((2-((3-chloro-2-fluorobenzyl)amino)-2-oxoethyl)(cyclopropyl)amino)-2-oxoethyl)-6-fluoro-1H-indazole-3-carboxamide], the negative logarithm of the IC50 (pIC50) was 6.00 to 7.00.
With `NC(=O)c1nn(CC(=O)N(CC(=O)Nc2cccc(Cl)n2)C2CCNC2)c2ccccc12` (stereo not shown) [Example 26, 1-(2-((2-((6-chloropyridin-2-yl)amino)-2-oxoethyl)(pyrrolidin-3-yl)amino)-2-oxoethyl)-1H-indazole-3-carboxamide], under setting [1], the pIC50 was 5.00 to 6.00.
Take `CC(C(N)=O)N(CC(=O)NCc1cccc(Cl)c1F)C(=O)Cn1nc(C(N)=O)c2ccccc21` (stereo not shown) [Example 62, 1-(2-((1-amino-1-oxopropan-2-yl)(2-((3-chloro-2-fluorobenzyl)amino)-2-oxoethyl)amino)-2-oxoethyl)-1H-indazole-3-carboxamide]: under setting [1], the negative logarithm of the IC50 (pIC50) is 5.00 to 6.00.
Still for that read-out and setting: to `NC(=O)c1nn(CC(=O)N(CC(=O)NCc2cccc(Cl)c2F)C2CC2)c2c(Cl)cccc12` [Example 81, 7-chloro-1-(2-((2-((3-chloro-2-fluorobenzyl)amino)-2-oxoethyl)(cyclopropyl)amino)-2-oxoethyl)-1H-indazole-3-carboxamide] belongs > 7.00; to `NC(=O)c1nn(CC(=O)N(CC(=O)NCc2cccc(Cl)c2F)C2CCNC2)c2ccccc12` (stereo not shown) [Example 37, 1-(2-((2-((3-chloro-2-fluorobenzyl)amino)-2-oxoethyl)(pyrrolidin-3-yl)amino)-2-oxoethyl)-1H-indazole-3-carboxamide], 5.00 to 6.00; to `NC(=O)c1nn(CC(=O)N(CC(=O)NCc2ccc(F)c(Cl)c2F)C2CC2)c2ccccc12` [Example 83, 1-(2-((2-((3-chloro-2,4-difluorobenzyl)amino)-2-oxoethyl)(cyclopropyl)amino)-2-oxoethyl)-1H-indazole-3-carboxamide], 6.00 to 7.00.
For `NC(=O)c1nn(CC(=O)N(CC(=O)Nc2cccc(Cl)n2)Cc2ccncc2)c2ccccc12` [Example 25, 1-(2-((2-((6-chloropyridin-2-yl)amino)-2-oxoethyl)(pyridin-4-ylmethyl)amino)-2-oxoethyl)-1H-indazole-3-carboxamide], under setting [1], the negative logarithm of the IC50 (pIC50) was < 5.00.
As to `NC(=O)c1cc(C(N)=O)n(CC(=O)N(CC(=O)NCc2cccc(Cl)c2F)C2CC2)n1` [Example 45, 1-(2-((2-((3-chloro-2-fluorobenzyl)amino)-2-oxoethyl)(cyclopropyl)amino)-2-oxoethyl)-1H-pyrazole-3,5-dicarboxamide], the negative logarithm of the IC50 (pIC50) under setting [1] is 5.00 to 6.00.
`NC(=O)c1nn(CC(=O)N(CC(=O)NCc2cccc(Cl)c2F)C2CC2)c2ccc(Cl)cc12` [Example 80, 5-chloro-1-(2-((2-((3-chloro-2-fluorobenzyl)amino)-2-oxoethyl)(cyclopropyl)amino)-2-oxoethyl)-1H-indazole-3-carboxamide]: the pIC50 is 6.00 to 7.00.
Regarding `COc1c(Cl)cccc1CNC(=O)CN(C(=O)Cn1nc(C(N)=O)c2ccccc21)C1CC1` [Example 116, 1-(2-((2-((3-chloro-2-methoxybenzyl)amino)-2-oxoethyl)(cyclopropyl)amino)-2-oxoethyl)-1H-indazole-3-carboxamide], the negative-log IC50 (pIC50) under setting [1] is 5.00 to 6.00.
As for `CC1CC1N(CC(=O)NCc1cccc(Cl)c1F)C(=O)Cn1nc(C(N)=O)c2ccccc21` (stereo not shown) [Example 63, 1-(2-((2-((3-chloro-2-fluorobenzyl)amino)-2-oxoethyl)(2-methylcyclopropyl)amino)-2-oxoethyl)-1H-indazole-3-carboxamide], under setting [1], the pIC50 is 6.00 to 7.00.
`N#Cc1ccc2c(C(N)=O)nn(CC(=O)N(CC(=O)NCc3cccc(Cl)c3F)C3CC3)c2c1` [Example 86, 1-(2-((2-((3-chloro-2-fluorobenzyl)amino)-2-oxoethyl)(cyclopropyl)amino)-2-oxoethyl)-6-cyano-1H-indazole-3-carboxamide] showed a negative logarithm of the IC50 (pIC50) of 6.00 to 7.00.
On the same count and under the same terms, as for `NC(=O)c1nn(CC(=O)N(CC(=O)NCc2c(F)ccc(Cl)c2F)C2CC2)c2ccccc12` [Example 82, 1-(2-((2-((3-chloro-2,6-difluorobenzyl)amino)-2-oxoethyl)(cyclopropyl)amino)-2-oxoethyl)-1H-indazole-3-carboxamide], the figure is 6.00 to 7.00.
As for `NC(=O)c1nn(CC(=O)N(CC(=O)Nc2cccc(Cl)n2)C2CCNCC2)c2ccccc12` [Example 17, 1-(2-((2-((6-chloropyridin-2-yl)amino)-2-oxoethyl)(piperidin-4-yl)amino)-2-oxoethyl)-1H-indazole-3-carboxamide], the pIC50 under setting [1] was 5.00 to 6.00.
For `CC(c1ccccc1)N(CC(=O)NCc1cccc(Cl)c1F)C(=O)Cn1nc(C(N)=O)c2ccccc21` (stereo not shown) [Example 65, 1-(2-((2-((3-chloro-2-fluorobenzyl)amino)-2-oxoethyl)(1-phenylethyl)amino)-2-oxoethyl)-1H-indazole-3-carboxamide], the pIC50 under setting [1] is 6.00 to 7.00.
On to `NC(=O)n1cc(NC(=O)N(CC(=O)NCc2cccc(Cl)c2F)C2CC2)c2ccccc21` [Example 51, 3-(3-(2-((3-chloro-2-fluorobenzyl)amino)-2-oxoethyl)-3-cyclopropylureido)-1H-indole-1-carboxamide], for which, under setting [1], the negative-log IC50 (pIC50) was 6.00 to 7.00.
For the compound `Cc1cc(Cl)cc(CNC(=O)CN(C(=O)Cn2nc(C(N)=O)c3ccccc32)C2CC2)c1` [Example 129, 1-(2-((2-((3-chloro-5-methylbenzyl)amino)-2-oxoethyl)(cyclopropyl)amino)-2-oxoethyl)-1H-indazole-3-carboxamide], under setting [1], the negative-log IC50 (pIC50) was 5.00 to 6.00.
With `NC(=O)c1nn(CC(=O)N(CC(=O)NCc2cccc(Cl)c2F)C(CCO)C2CC2)c2ccccc12` (stereo not shown) [Example 73, 1-(2-((2-((3-chloro-2-fluorobenzyl)amino)-2-oxoethyl)(1-cyclopropyl-3-hydroxypropyl)amino)-2-oxoethyl)-1H-indazole-3-carboxamide], the negative-log IC50 (pIC50) under setting [1] is 5.00 to 6.00.
For `CCN(CC(=O)Nc1cccc(Cl)n1)C(=O)Cn1nc(C(N)=O)c2ccccc21` [Example 15, 1-(2-((2-((6-chloropyridin-2-yl)amino)-2-oxoethyl)(ethyl)amino)-2-oxoethyl)-1H-indazole-3-carboxamide], under setting [1], the pIC50 is 6.00 to 7.00.
Still for that read-out and setting: to `CC(CC(N)=O)N(CC(=O)NCc1cccc(Cl)c1F)C(=O)Cn1nc(C(N)=O)c2ccccc21` (stereo not shown) [Example 76, 1-(2-((4-amino-4-oxobutan-2-yl)(2-((3-chloro-2-fluorobenzyl)amino)-2-oxoethyl)amino)-2-oxoethyl)-1H-indazole-3-carboxamide] belongs 6.00 to 7.00; to `CCOC(=O)CC(C)N(CC(=O)NCc1cccc(Cl)c1F)C(=O)Cn1nc(C(N)=O)c2ccccc21` (stereo not shown) [Example 72, ethyl 3-(2-(3-carbamoyl-1H-indazol-1-yl)-N-(2-((3-chloro-2-fluorobenzyl)amino)-2-oxoethyl)acetamido)butanoate], 6.00 to 7.00.
Same read-out and setting: to `CC(N(CC(=O)NCc1cccc(Cl)c1F)C(=O)Cn1nc(C(N)=O)c2ccccc21)C(F)(F)F` (stereo not shown) [Example 67, 1-(2-((2-((3-chloro-2-fluorobenzyl)amino)-2-oxoethyl)(1,1,1-trifluoropropan-2-yl)amino)-2-oxoethyl)-1H-indazole-3-carboxamide] belongs 6.00 to 7.00.
The same measure, in the same setting: to `NCc1ccc2c(C(N)=O)nn(CC(=O)N(CC(=O)NCc3cccc(Cl)c3F)C3CC3)c2c1` [Example 89, 6-(aminomethyl)-1-(2-((2-((3-chloro-2-fluorobenzyl)amino)-2-oxoethyl)(cyclopropyl)amino)-2-oxoethyl)-1H-indazole-3-carboxamide] belongs 5.00 to 6.00; to `NC(=O)c1nn(CC(=O)N(CC(=O)NCc2ccc(CO)c(Cl)c2F)C2CC2)c2ccccc12` [Example 99, 1-(2-((2-((3-chloro-2-fluoro-4-(hydroxymethyl)benzyl)amino)-2-oxoethyl)(cyclopropyl)amino)-2-oxoethyl)-1H-indazole-3-carboxamide], < 5.00.
For the compound `NC(=O)c1nn(CC(=O)N(CC(=O)NCc2cccc(Cl)c2)C2CC2)c2ccccc12` [Example 112, 1-(2-((2-((3-chlorobenzyl)amino)-2-oxoethyl)(cyclopropyl)amino)-2-oxoethyl)-1H-indazole-3-carboxamide], the negative logarithm of the IC50 (pIC50) under setting [1] was 6.00 to 7.00.
Turning to `Cc1cccc(CNC(=O)CN(C(=O)Cn2nc(C(N)=O)c3ccccc32)C2CC2)c1F` [Example 128, 1-(2-(cyclopropyl(2-((2-fluoro-3-methylbenzyl)amino)-2-oxoethyl)amino)-2-oxoethyl)-1H-indazole-3-carboxamide], under setting [1], the pIC50 was 6.00 to 7.00.
On the same count and under the same terms, as for `NC(=O)c1nn(CC(=O)N(CC(=O)NCc2cccc(Cl)c2F)C2CCOCC2)c2ccccc12` [Example 29, 1-(2-((2-((3-chloro-2-fluorobenzyl)amino)-2-oxoethyl)(tetrahydro-2H-pyran-4-yl)amino)-2-oxoethyl)-1H-indazole-3-carboxamide], the figure is 5.00 to 6.00; as for `NCCN(CC(=O)Nc1cccc(Cl)n1)C(=O)Cc1nn(C(N)=O)c2ccccc12` [Example 18, 3-(2-((2-aminoethyl)(2-((6-chloropyridin-2-yl)amino)-2-oxoethyl)amino)-2-oxoethyl)-1H-indazole-1-carboxamide], 5.00 to 6.00; as for `NC(=O)c1nn(CC(=O)N(CC(=O)Nc2cccc(Cl)n2)C2CNC2)c2ccccc12` [Example 22, 1-(2-(azetidin-3-yl(2-((6-chloropyridin-2-yl)amino)-2-oxoethyl)amino)-2-oxoethyl)-1H-indazole-3-carboxamide], 5.00 to 6.00.

Broadly, the pIC50 is −log10 of the IC50, conventionally taken in molar units.
